# From patent publication US6355634B1, “Aromatic compounds” (Bayer Aktiengesellschaft, priority 1990, dated 2002)
# Columns and labels:
# Type in all cases: in vivo
# Venturia inaequalis = Venturia inaequalis (curative action) on apple seedlings; details: 50 ppm spray, apple cv. Golden Delicious, evaluated 9-10 days after treatment, read-out: action (leaf area covered in Venturia inaequalis as a percentage compared with the infected control)
# Experimental: Venturia inaequalis (Curative Action)
# Two apple seedlings cv. “Golden Delicious” are sprayed with a conidia suspension of Venturia inaequalis and subsequently incubated at 18° C. and under dew-point conditions. After 24 hours, the plants are sprayed thoroughly from all sides with a spray mixture prepared with a wettable powder of the active substance (with 50 ppm of active ingredient). The treated apple seedlings are subsequently cultured further in the greenhouse. 9-10 days after the treatment, the test is evaluated by determining the leaf area covered in Venturia inaequalis as a percentage compared with the infected control.
# Alternaria brassicae = Alternaria brassicae (protective action) on cabbage seedlings; details: 50 ppm spray, cabbage cv. Vorbote, evaluated 2-5 days after infection, read-out: action (leaf area infected with Alternaria brassicae as a percentage compared with the infected, untreated control)
# Experimental: Alternaria brassicae (Protective Action)
# 4 cabbage seedlings, cv. “Vorbote”, in the 6-leaf stage, distributed to 2 pots, are sprayed thoroughly with a spray mixture prepared with a wettable powder of the active substance (with 50 ppm of active ingredient) and subsequently cultured further in a controlled-environment cabinet at 19° C. and with 16 hours illumination per day. Two days after the treatment, the plants are infected by spraying with an aqueous conidia suspension (approx. 30,000 conidia/ml). The cabbage plants are then incubated at 24-26° C., under dew-point conditions and with a photoperiod of 16 hours. The test is evaluated 2-5 days after the infection by determining the leaf area infected with Alternaria brassicae as a percentage compared with the infected, untreated control.
# Plasmopara viticola = Plasmopara viticola (protective action) on grapevine seedlings; details: 144 h, 160 ppm spray, grapevine cv. Riesling x Sylvaner, day 6 after infection, read-out: action (leaf area infected with Plasmopara viticola as a percentage compared with the infected, untreated control)
# Experimental: Plasmopara viticola (Protective Action)
# 2 grapevine seedlings cv. Riesling×Sylvaner, each in the 4-5 leaf stage, are sprayed thoroughly from all sides with a spray mixture prepared with a wettable powder of the active substance (with 160 ppm of active ingredient) and subsequently cultured further in a controlled-environment cabinet at 17° C., 70-80% relative atmospheric humidity and with a photoperiod of 16 hours. After 6 days, the test plants are infected by spraying the undersides of the leaves with zoosporangia of Plasmopara viticola, suspended in distilled water (approx. 300,000 sporangia/ml). The grapevine plants are then incubated as follows: 1 day at 22° C. and under dew-point conditions in the dark and subsequently 4 days in the greenhouse. To induce fructification of Plasmopara viticola, the grapevines are transferred to a controlled-environment cabinet with dew-point conditions at 22° C. on day 5 after the infection.
# The tests are carried out in each case on day 6 after the infection by determining the leaf area infected with Plasmopara viticola as a percentage compared with the infected, untreated control.
# Cercospora arachidicola = assay: Action against Cercospora arachidicola on peanut plants (curative action); details: Mycosphaerella arachidis, 288 h, 160 ppm spray, peanut cv. Tamnut, evaluated 12 days after treatment, read-out: action (leaf area infected with Cercospora arachidicola as a percentage compared with the infected control)
# Experimental: Action Against Cercospora arachidicola on Peanut Plants (Curative Action)
# Two peanut plants cv. “Tamnut” in the 4-leaf stage are sprayed with a conidia suspension of Cercospora arachidicola (approx. 200,000 conidia/ml) and subsequently incubated at 25-26° C. and under dew-point conditions. After two days, the plants are sprayed thoroughly from all sides with a spray mixture prepared with a wettable powder of the active substance (with 160 ppm of active ingredient). The treated plants are subsequently incubated in a controlled-environment cabinet under the following conditions: 25-27° C. and 80% atmospheric humidity during the day, 20° C. and dew-point conditions during the night; the photoperiod in each case is 16 hours. 12 days after the treatment, the test is evaluated by determining the leaf area infected with Cercospora arachidicola as a percentage compared with the infected control.
# Erysiphe graminis = Erysiphe graminis (protective action) on wheat seedlings; details: Blumeria graminis, 168 h, 160 ppm spray, wheat cv. Lita, evaluated 7 days after infection, read-out: action (leaf area covered in Erysiphe graminis as a percentage compared with the infected control)
# Experimental: Erysiphe graminis (Protective Action)
# 30-40 wheat seedlings cv. “Lita” in the 1-leaf stage (distributed to two pots of ø7 cm) are sprayed thoroughly with a spray mixture prepared with a wettable powder of the active substance (with 160 ppm of active ingredient) and then cultured further in the greenhouse. One day after the treatment, the plants are dusted with conidia of Erysiphe graminis. The test is evaluated 7 days after the infection by determining the size of the leaf area covered in Erysiphe graminis as a percentage compared with the infected control.
# Untreated, but infected control plants show a level of infection with Erysiphe of 100%.
# Puccinia coronata = Puccinia coronata (curative action) on oat seedlings; details: 160 ppm spray, oat cv. Selma, evaluated 9-10 days after infection, read-out: action (leaf area infected with Puccinia coronata as a percentage compared with the infected, untreated control)
# Experimental: Puccinia coronata (Curative Action)
# 30-40 oat seedlings cv. “Selma” (distributed to 2 pots of ø7 cm) are infected with Puccinia coronata by spraying with an aqueous spore suspension (approx. 150,000 uredospores/ml). The test plants are subsequently incubated for 24 hours at 20-24° C. and under dew-point conditions. The oat seedlings are then sprayed thoroughly from all sides with a spray mixture prepared with a wettable powder of the active substance (with 160 ppm of active ingredient). They are cultured further in a controlled-environment cabinet at 19° C. and with a photoperiod of 14 hours. The test is evaluated 9-10 days after infection by determining the leaf area infected with Puccinia coronata as a percentage compared with the infected, untreated control.
SMILES,pest or weed control at 50 ppm (Venturia inaequalis) [%],pest or weed control at 50 ppm (Alternaria brassicae) [%],pest or weed control at 160 ppm (Plasmopara viticola) [%],pest or weed control at 160 ppm (Cercospora arachidicola) [%],pest or weed control at 160 ppm (Erysiphe graminis) [%],pest or weed control at 160 ppm (Puccinia coronata) [%]
CO/N=C(\C(=O)OC)c1ccccc1CON=C(C)c1cccc(Br)c1 [Compound 22],> 75,> 75,> 75,> 75,,
CO/N=C(\C(=O)OC)c1ccccc1CON=C(C)c1ccc(OC)c([N+](=O)[O-])c1 [Compound 82],> 75,,> 75,,,
CCC(=NOCc1ccccc1/C(=N/OC)C(=O)OC)c1ccc2ccccc2c1 [Compound 120],,,> 75,,> 75,
CO/N=C(\C(=O)OC)c1ccccc1CON=C(C)C(=O)c1cccc(Br)c1 [Compound 129],,,> 75,> 75,,
CO/N=C(\C(=O)OC)c1ccccc1CON=C(SC)c1ccc(Cl)cc1 [Compound 125],,,> 75,,,
CO/N=C(\C(=O)OC)c1ccccc1CON=C(c1ccccc1)C(C)C [Compound 29],> 75,> 75,> 75,,> 75,
CO/N=C(\C(=O)OC)c1ccccc1CON=C(C)Cc1ccc(Cl)c(C(F)(F)F)c1 [Compound 133],,,,> 75,,> 75
CO/N=C(\C(=O)OC)c1ccccc1CON=C(c1ccc2ccccc2c1)C1CC1 [Compound 150],,> 75,> 75,,,
CO/N=C(\C(=O)OC)c1ccccc1CON=C(C)c1ccc2c(c1)OCO2 [Compound 38],> 75,> 75,> 75,> 75,,
CO/N=C(\C(=O)OC)c1ccccc1CON=C(C)C(=O)c1cccc(C(F)(F)F)c1 [Compound 131],> 75,,,,,> 75
CO/N=C(\C(=O)OC)c1ccccc1CON=C(c1ccccc1)C1CC1 [Compound 36],> 75,> 75,> 75,> 75,,
CO/N=C(\C(=O)OC)c1ccccc1CON=C(C)c1ccc([N+](=O)[O-])cc1 [Compound 25],,> 75,,> 75,> 75,
CO/N=C(\C(=O)OC)c1ccccc1CON=C(C)c1cccc(C(F)(F)F)c1 [Compound 12],> 75,> 75,> 75,> 75,,> 75
CO/N=C(\C(=O)OC)c1ccccc1CON=C(C)c1ccc(Cl)c(Cl)c1 [Compound 13],> 75,> 75,,> 75,> 75,
CO/N=C(\C(=O)OC)c1ccccc1CON=C(c1cccc(C(F)(F)F)c1)C1CC1 [Compound 148],,,,> 75,,> 75
CO/N=C(\C(=O)OC)c1ccccc1CON=C(c1cccc(Br)c1)C1CC1 [Compound 147],> 75,,> 75,,,
CO/N=C(\C(=O)OC)c1ccccc1CON=C(C)C(C)=CC=C(C)CCC=C(C)C [Compound 23],,> 75,,,> 75,
CO/N=C(\C(=O)OC)c1ccccc1CON=C(C)c1cccc(OC(F)(F)F)c1 [Compound 138],,> 75,> 75,> 75,,> 75

SMILES,pest or weed control at 50 ppm (Venturia inaequalis) [%],pest or weed control at 50 ppm (Alternaria brassicae) [%],pest or weed control at 160 ppm (Plasmopara viticola) [%],pest or weed control at 160 ppm (Cercospora arachidicola) [%],pest or weed control at 160 ppm (Erysiphe graminis) [%],pest or weed control at 160 ppm (Puccinia coronata) [%]
CO/N=C(\C(=O)OC)c1ccccc1CON=C(c1cccc(Br)c1)C(F)(F)F [Compound 30],> 75,> 75,> 75,> 75,,
CO/N=C(\C(=O)OC)c1ccccc1CON=CC(=O)c1cccs1 [Compound 105],> 75,> 75,,,> 75,
CO/N=C(\C(=O)OC)c1ccccc1CON=C(OC)c1ccc(Cl)cc1 [Compound 127],,,,,> 75,
CO/N=C(\C(=O)OC)c1ccccc1CON=C(C)c1ccc(F)c(C(F)(F)F)c1 [Compound 90],,,,> 75,,> 75
CO/N=C(\C(=O)OC)c1ccccc1CON=C(C)c1cccc(Cl)c1 [Compound 135],> 75,,> 75,,> 75,
CO/N=C(\C(=O)OC)c1ccccc1CON=C(c1ccc2c(c1)OCO2)C1CC1 [Compound 41],,,> 75,> 75,,
CO/N=C(\C(=O)OC)c1ccccc1CON=C(c1ccc(Oc2ccccc2)cc1)C1CC1 [Compound 149],,,,,> 75,
CCCC(=NOCc1ccccc1/C(=N/OC)C(=O)OC)c1ccccc1 [Compound 18],,,,,> 75,
CO/N=C(\C(=O)OC)c1ccccc1CON=C(c1cccc(C(F)(F)F)c1)C(F)(F)F [Compound 39],,,,,> 75,
CO/N=C(\C(=O)OC)c1ccccc1CON=C(SC)c1cccc(C(F)(F)F)c1 [Compound 126],,,,,> 75,
CCC(=NOCc1ccccc1/C(=N/OC)C(=O)OC)c1ccccc1 [Compound 28],> 75,> 75,> 75,,,
CO/N=C(\C(=O)OC)c1ccccc1CON=C(C)c1ccc(OC(F)F)cc1 [Compound 78],> 75,,,,,> 75
CO/N=C(\C(=O)OC)c1ccccc1CON=C(C)c1cccc(C#N)c1 [Compound 70],,,,,> 75,
CO/N=C(\C(=O)OC)c1ccccc1CON=C(c1ccc(C)cc1)C(F)(F)F [Compound 31],> 75,> 75,> 75,,> 75,
CO/N=C(\C(=O)OC)c1ccccc1CON=C(C)Cc1cccc(C(F)(F)F)c1 [Compound 24],> 75,> 75,> 75,> 75,> 75,
CO/N=C(\C(=O)OC)c1ccccc1CON=C(C)c1cccc(F)c1 [Compound 40],,,,> 75,> 75,
CO/N=C(\C(=O)OC)c1ccccc1CON=C(C)C(=O)c1ccc(F)cc1 [Compound 128],,,,,> 75,> 75
